Earlier results in patent US20050065087A1, “Pharmaceutical compositions and methods comprising combinations of 2-alkylidene-19-nor-vitamin D derivatives and a bone morphogenetic protein” (Pfizer Inc., priority 2003, published 2005).

What was measured:
[1] = test system: male weanling rats on vitamin D-deficient diet; details: chronic 7 days, 130 and/or 260 pmol/day as tested
[2] = test system: male weanling rats on vitamin D-deficient diet; details: for bone calcium mobilization (in words): chronic 7 days, 130 and 260 pmol/day
HL-60 cells = details: method of Ostrem et al.

| SMILES | intestinal calcium transport (in words) [1] | serum calcium value (text sentence) ([2]; 'twice the dose ... at the 130 pmol dose' as printed, 7 days) | inducing differentiation of HL-60 cells to the monocyte (in words) (HL-60 cells) | bone calcium mobilization (in words) [2] | bone calcium mobilization activity relative to the native hormone, 'possible' upper estimate ([2]; 130 pmol/day, chronic mode 7 days) | bone calcium mobilization activity relative to 1,25-(OH)2D3 (native hormone) ([2]; chronic mode 7 days, estimate in the text) |
| --- | --- | --- | --- | --- | --- | --- |
| C=C1/C(=C\C=C2/CCC[C@]3(C)[C@@H]([C@H](C)CCCC(C)(C)O)CC[C@@H]23)C[C@@H](O)C[C@@H]1O [1,25-(OH)2D3, 1,25-dihydroxyvitamin D3, reference compound] | expected elevation | 13.8 mg/100 ml |  |  |  |  |
| C=C1[C@H](O)CC(=C/C=C2\CCC[C@]3(C)[C@@H]([C@H](C)CCCC(C)(C)O)CC[C@@H]23)C[C@H]1O [2-Methylene-19-Nor-1,25-(OH)2D3, 1α,25-dihydroxy-2-methylene-19-nor-vitamin D3] | no intestinal calcium transport activity |  | activity similar to 1,25-(OH)2D3 | extremely strong bone calcium mobilization |  |  |
| C=C1[C@H](O)CC(=C/C=C2\CCC[C@]3(C)[C@@H]([C@@H](C)CCCC(C)(C)O)CC[C@@H]23)C[C@H]1O [2-Methylene-19-Nor-20S-1,25-(OH)2D3, (20S)-1α,25-dihydroxy-2-methylene-19-nor-vitamin D3] | no significant change |  | extremely potent | most potent compound tested | 100-1,000 times | at least 10 times |
